According to patent US7053121B2, “Compositions and methods for regulating circadian rhythms” (priority 2001, dated 2006):

Assays:
[1] = test system: Gal4DBD fusions of CLOCK and MOP4 with VP16 fusions of nuclear receptors; test: Mammalian two-hybrid analysis in CV-1 cells; assay type: cell-based, human; settings: ligand 1 μM, FIG. 1B
Experimental: NIH 3T3 cells were seeded at 20,000 cells/well in a 48-well dish and transfected by FuGENE™ liposome-mediated transfer (Roche Molecular Biochemicals, Indianapolis, Ind.) with internal control pRLSV40 (5 ng), pGL3M34 reporter, CMX-MOP4 (100 ng) or CMX-CLOCK (100 ng) and CMX-BMAL1 (100 ng) in the presence or absence of CMX-RXRα or CMX-RARα (25–100 ng). CMX-MOP4ΔAAA (100 ng), pCDNA3.1MOP4Δ727 (100 ng), pCDNA3.1MOP4Δ624 (100 ng), and CMX-MOP4Δ635–645 (100 ng) were used instead of CMXMOP4 where indicated. The amount of DNA in each transfection was kept constant by addition of empty pCDNA3 vector. […] Forty-eight hours post-transfection, cells were harvested to determine luciferase activity by luminometry (Dual-Luciferase® Reporter Assay System, Promega Corporation, Madison, Wis.). The procedure for mammalian two-hybrid analysis was identical except that CV-1 cells were used. MH100TK-LUC (100 ng) reporter, CMX-Gal4DBD-MOP4 (20 ng), CMX-Gal4DBD-CLOCK (20 ng) in the presence of, CMX-VP16-PPARγ (20 ng), CMX-VP16-RARα (20 ng), CMX-VP16-TRβ (20 ng), CMX-RXRα (20 ng) or CMX-VP16-PPARα (20 ng). […] For all the figures, each value is the mean of three independent experiments +/− standard error. Each experiment included six replicates from a single assay.

CLOCK and RARα = target: T1, CLOCK and RARα (Homo sapiens, UniProt P10276); test: In vitro immunoprecipitation of CLOCK and RARα; assay type: binding; settings: in vitro translated proteins, incubation in presence of retinoic acid
T1 construct: made in house; host or cells: coupled in vitro transcription-translation (labelled protein); E. coli BL21(DE3) (purified protein, inferred)
T1 sequence (P10276 1-462): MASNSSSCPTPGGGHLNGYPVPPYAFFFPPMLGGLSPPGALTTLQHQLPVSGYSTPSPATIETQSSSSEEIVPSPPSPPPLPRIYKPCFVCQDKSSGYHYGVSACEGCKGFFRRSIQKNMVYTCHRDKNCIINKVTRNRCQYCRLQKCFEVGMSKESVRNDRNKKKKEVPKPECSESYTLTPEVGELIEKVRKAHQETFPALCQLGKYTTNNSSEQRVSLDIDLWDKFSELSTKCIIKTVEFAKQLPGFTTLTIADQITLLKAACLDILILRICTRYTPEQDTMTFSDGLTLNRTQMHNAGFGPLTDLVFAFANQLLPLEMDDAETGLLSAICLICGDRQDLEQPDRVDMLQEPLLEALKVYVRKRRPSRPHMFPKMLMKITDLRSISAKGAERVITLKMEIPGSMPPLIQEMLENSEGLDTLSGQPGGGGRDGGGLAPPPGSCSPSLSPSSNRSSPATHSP
T1 sequence (O15516 1-846 partner): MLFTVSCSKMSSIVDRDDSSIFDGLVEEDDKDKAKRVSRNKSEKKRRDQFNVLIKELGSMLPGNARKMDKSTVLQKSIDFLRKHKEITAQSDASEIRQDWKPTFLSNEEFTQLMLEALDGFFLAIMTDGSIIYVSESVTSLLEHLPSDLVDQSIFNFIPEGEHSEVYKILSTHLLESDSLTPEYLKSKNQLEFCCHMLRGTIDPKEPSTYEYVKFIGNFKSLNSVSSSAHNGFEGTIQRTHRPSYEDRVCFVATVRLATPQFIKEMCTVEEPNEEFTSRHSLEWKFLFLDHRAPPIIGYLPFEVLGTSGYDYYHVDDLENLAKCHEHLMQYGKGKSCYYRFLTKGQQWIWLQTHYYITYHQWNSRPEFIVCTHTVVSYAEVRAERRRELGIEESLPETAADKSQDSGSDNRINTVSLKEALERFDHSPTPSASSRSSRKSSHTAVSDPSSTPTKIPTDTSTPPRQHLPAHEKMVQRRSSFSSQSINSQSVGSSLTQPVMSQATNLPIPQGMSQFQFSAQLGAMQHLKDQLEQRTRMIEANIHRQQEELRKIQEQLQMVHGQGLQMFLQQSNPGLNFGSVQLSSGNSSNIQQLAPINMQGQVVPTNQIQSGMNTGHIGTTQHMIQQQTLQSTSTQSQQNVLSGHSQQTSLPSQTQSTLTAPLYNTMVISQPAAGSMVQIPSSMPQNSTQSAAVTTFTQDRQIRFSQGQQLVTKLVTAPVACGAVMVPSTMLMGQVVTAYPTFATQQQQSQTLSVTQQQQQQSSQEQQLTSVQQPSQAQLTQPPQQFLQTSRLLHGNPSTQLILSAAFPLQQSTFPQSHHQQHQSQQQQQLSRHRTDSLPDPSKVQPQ
Experimental: [^35S]Methionine-labeled RARα and CLOCK were incubated with purified CLOCK and RARα protein, respectively for 30 min. at room temperature in the presence or absence of tRA. The complex was immunoprecipitated using anti-CLOCK and anti-RAR antibodies (Santa Cruz Biotechnology, Inc., Santa Cruz, Calif.) and protein A-agarose (Gibco, Carlsbad, Calif.) was added. Beads were washed extensively and bound proteins separated by SDS-PAGE and analyzed by a PhosphorImager.

[2] = test system: interaction between MOP4 and CLOCK with RXRα and RARα; settings: YRG2 cells, ligand 1 μM, FIG. 1A
Experimental: A liquid β-galactosidase activity assay was utilized to assess the effect of ligands on these novel interactions.
The library was prepared by ligating XhoI/EcoRI-adapted, phosphorylated, oligo-dT-primed cDNA, prepared from polyadenylated RNA extracted from 1×10^8 human aortic vascular smooth muscle cells (Cambrex Corporation, East Rutherford, N.J.), into the HybriZAP® II vector and packaged with Gigapack® III Gold packaging extract (Stratagene, La Jolla, Calif.) into a primary lambda library. […] RXRα-interacting clones were selected on media lacking tryptophan, leucine, and histidine, supplemented with 10 mM 3-amino-triazol.

[3] = test system: hPER2 transcript oscillation in VSMC; test: Serum shock and ribonuclease protection analysis of hPER2 mRNA in VSMC; assay type: cell-based, human
Experimental: In these experiments, it was determined that oscillating clock gene expression could be induced by serum shock in VSMC as had been reported in Rat and 3T3 fibroblasts (Balsalobre, et al. (1998) Cell 93:929–937; Akashi, et al. (2000) Genes Dev. 14:645–649). Following addition of 50% serum for two hours, hPER2 mRNA peaks very rapidly at T4 (fours hours after serum shock) and enters a cyclical expression pattern, peaking at T24 and T48 (FIG. 5A). Adding tRA at T17 and leaving it in the culture for the remainder of the experiment, delayed the peak of hPER2 mRNA from T24 to T28. […] When tRA was added at T17 and removed at T19, the first hPER2 peak was again delayed to T28. However, the drop in hPER2 levels was followed by an increase, resulting in a second cycle which peaked at T52 (FIG. 5C). Thus, tRA phase delayed the hPER oscillation by four hours, which is consistent with the observation that ligand-bound RARα prevents CLOCK:BMAL1 heterodimer from activating transcription through its E-box. Removal of the ligand restored the ability of the CLOCK:BMAL1 heterodimer to induce hPER2 expression, but the phase of the cycle was delayed.
The coincidental circadian variability of catecholamines and blood pressure (Hossmann, et al. (1980) Cardiovasc. Res. 14:125–129) led to the investigation of whether catecholamines can phase-shift a core clock oscillator in VSMC. Norepinephrine and epinephrine (10 μM), were added at T16 and left in the culture until T18. This phase advanced the hPER2 mRNA peak to T20 instead of T24 (FIG. 5D).
VSMC (3500 cells/cm^2) were plated on 10 cm^2 plates 6 days before the experiment and were serum-starved for 48 hours after reaching confluence. Serum shock was carried out using 50% fetal bovine serum (Gibco, Carlsbad, Calif.) as previously described (Balsalobre, et al. (1998) Cell 93:929–937) and cells were harvested at the indicated time points and stored at −80° C. Total RNA was extracted from each sample using the RNAwiz™ reagent (Ambion, Austin, Tex.). […] RNA (5 μg) from each time point was hybridized for 16 hour with 8×10^4 cpm of the probe at 42° C. and digested with RNaseA/T1 (SequaGel System, National Diagnostics, Atlanta, Ga.), dried and analyzed by a PhosphorImager. The data was quantitated using ImageQuant version 1.2 software (Amersham Pharmacia Molecular Dynamics, Piscataway, N.J.) All results represent a mean of at least two independent experiments and are expressed as the ratio of the MOP4 or PER2 signal divided by the Actin signal at the same time point.

Row | SMILES | interaction of MOP4 and CLOCK with RXRα and RARα [1] | association of CLOCK and RARα (coimmunoprecipitation) (CLOCK and RARα) | strength of the interaction between MOP4 and CLOCK with RARα [2] | hPER2 transcript oscillation ([3]; addition at T17, FIG. 5B) | hPER2 transcript oscillation ([3]; addition at T17 and removal at T19, FIG. 5C) | phase delay of the hPER oscillation ([3]; tRA added at T17) | subsequent hPER2 levels ([3]; tRA added at T17 and left in culture, FIG. 5B)
1 | CC1=C(/C=C/C(C)=C\C=C\C(C)=C\C(=O)O)C(C)(C)CCC1 [9cisRA, 9-cis-retinoic acid] | ligand-dependent manner |  |  |  |  |  | 
2 | CC1=C(/C=C/C(C)=C/C=C/C(C)=C/C(=O)O)C(C)(C)CCC1 [tRA, all-trans retinoic acid] | ligand-dependent manner | increase in association | increase the strength of the interaction | delayed | altered | four | dropped and did not peak again
